{"source": "PubChem BioAssay (NCI)", "experiment_in_all_cases": "NCI tumour cell line growth inhibition, 48 h", "key": {"M14 melanoma": {"system": "M14 melanoma"}, "SF-539 CNS": {"system": "SF-539 CNS"}, "MDA-MB-435": {"system": "MDA-MB-435"}, "NCI/ADR-RES ovarian": {"system": "NCI/ADR-RES ovarian"}, "BT-549 breast": {"system": "BT-549 breast"}, "SR leukemia": {"system": "SR leukemia"}, "DMS 114 small cell lung": {"system": "DMS 114 small cell lung"}, "M19-MEL melanoma": {"system": "M19-MEL melanoma"}, "P388/ADR leukemia": {"system": "P388/ADR leukemia"}, "SNB-78 CNS": {"system": "SNB-78 CNS"}, "DMS 273 small cell lung": {"system": "DMS 273 small cell lung"}, "DLD-1 colon": {"system": "DLD-1 colon"}, "KM20L2 colon": {"system": "KM20L2 colon"}, "P388 leukemia": {"system": "P388 leukemia"}, "786-0 renal": {"system": "786-0 renal"}}, "note": "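Cultured in 96-well plates, cells were exposed to test compound for 48 hours across five concentrations. Abbreviation: GI50, concentration required for 50% inhibition of growth. TGI denotes the concentration required for complete inhibition of growth.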"}
{"smiles": "NC(CCP(=O)(O)CCC1C=CC=CC1)C(=O)O", "note": "(stereo not given)", "values": [{"measurement": "TGI", "setting": "M14 melanoma", "value": "> 100", "unit": "µM"}, {"measurement": "TGI", "setting": "SF-539 CNS", "value": "> 100", "unit": "µM"}, {"measurement": "TGI", "setting": "MDA-MB-435", "value": "> 100", "unit": "µM"}, {"measurement": "TGI", "setting": "NCI/ADR-RES ovarian", "value": "> 100", "unit": "µM"}, {"measurement": "TGI", "setting": "BT-549 breast", "value": "> 100", "unit": "µM"}, {"measurement": "TGI", "setting": "SR leukemia", "value": "> 100", "unit": "µM"}]}
{"smiles": "CC(C)(C)[Si](C)(C)OCC1CCC(n2cnc3c(N)ncnc32)O1", "note": "(stereo not given)", "values": [{"measurement": "TGI", "setting": "M14 melanoma", "value": "> 100", "unit": "µM"}, {"measurement": "TGI", "setting": "MDA-MB-435", "value": 85.2, "unit": "µM"}, {"measurement": "TGI", "setting": "BT-549 breast", "value": 87, "unit": "µM"}]}
{"smiles": "COC(=O)c1ccc(N=NN(C)COc2ccc([N+](=O)[O-])cc2)cc1", "values": [{"measurement": "TGI", "setting": "SF-539 CNS", "value": "> 100", "unit": "µM"}, {"measurement": "TGI", "setting": "DMS 114 small cell lung", "value": "> 100", "unit": "µM"}, {"measurement": "TGI", "setting": "M19-MEL melanoma", "value": "> 100", "unit": "µM"}, {"measurement": "TGI", "setting": "NCI/ADR-RES ovarian", "value": "> 100", "unit": "µM"}, {"measurement": "TGI", "setting": "P388/ADR leukemia", "value": "> 100", "unit": "µM"}, {"measurement": "TGI", "setting": "SNB-78 CNS", "value": "> 100", "unit": "µM"}, {"measurement": "TGI", "setting": "DMS 273 small cell lung", "value": "> 100", "unit": "µM"}, {"measurement": "TGI", "setting": "DLD-1 colon", "value": "> 100", "unit": "µM"}, {"measurement": "TGI", "setting": "KM20L2 colon", "value": "> 100", "unit": "µM"}, {"measurement": "TGI", "setting": "P388 leukemia", "value": "> 100", "unit": "µM"}]}
{"smiles": "O=[N+]([O-])c1ccc(Nc2nc3ccccc3s2)cc1", "values": [{"measurement": "TGI", "setting": "M14 melanoma", "value": "> 100", "unit": "µM"}, {"measurement": "TGI", "setting": "MDA-MB-435", "value": "> 100", "unit": "µM"}, {"measurement": "TGI", "setting": "NCI/ADR-RES ovarian", "value": "> 100", "unit": "µM"}, {"measurement": "TGI", "setting": "BT-549 breast", "value": 81.4, "unit": "µM"}, {"measurement": "TGI", "setting": "SR leukemia", "value": 34.5, "unit": "µM"}]}
{"smiles": "COc1cc(C2=C(C#N)C(N)OC3=C2COc2ccccc23)cc(OC)c1OC", "note": "(stereo not given)", "values": [{"measurement": "TGI", "setting": "M14 melanoma", "value": "> 100", "unit": "µM"}, {"measurement": "TGI", "setting": "SF-539 CNS", "value": 50.5, "unit": "µM"}, {"measurement": "TGI", "setting": "MDA-MB-435", "value": "> 100", "unit": "µM"}, {"measurement": "TGI", "setting": "NCI/ADR-RES ovarian", "value": "> 100", "unit": "µM"}, {"measurement": "TGI", "setting": "BT-549 breast", "value": "> 100", "unit": "µM"}, {"measurement": "TGI", "setting": "SR leukemia", "value": "> 100", "unit": "µM"}]}
{"smiles": "CC1=CC(=O)C(=O)C2=C1OC1(C2)C(C)CCC2C3(C)CCC(O)C(C)(C)C3CCC21C", "note": "(stereo not given)", "values": [{"measurement": "TGI", "setting": "M14 melanoma", "value": 37.2, "unit": "µM"}, {"measurement": "TGI", "setting": "SF-539 CNS", "value": "> 100", "unit": "µM"}, {"measurement": "TGI", "setting": "DMS 114 small cell lung", "value": 33.6, "unit": "µM"}, {"measurement": "TGI", "setting": "M19-MEL melanoma", "value": 34.4, "unit": "µM"}, {"measurement": "TGI", "setting": "SNB-78 CNS", "value": 64.6, "unit": "µM"}, {"measurement": "TGI", "setting": "DMS 273 small cell lung", "value": 60.9, "unit": "µM"}, {"measurement": "TGI", "setting": "DLD-1 colon", "value": 41.8, "unit": "µM"}, {"measurement": "TGI", "setting": "786-0 renal", "value": 33.3, "unit": "µM"}, {"measurement": "TGI", "setting": "SR leukemia", "value": "> 100", "unit": "µM"}, {"measurement": "TGI", "setting": "KM20L2 colon", "value": 37.4, "unit": "µM"}]}
{"smiles": "COC1CC(OC2CCC3(C)C(CCC45CCC(C6=CC(=O)OC6)C(C)(CCC43)C5=O)C2)OC(C)C1O", "note": "(stereo not given)", "values": [{"measurement": "TGI", "setting": "M14 melanoma", "value": "> 100", "unit": "µM"}, {"measurement": "TGI", "setting": "SF-539 CNS", "value": 63.3, "unit": "µM"}, {"measurement": "TGI", "setting": "MDA-MB-435", "value": "> 100", "unit": "µM"}, {"measurement": "TGI", "setting": "NCI/ADR-RES ovarian", "value": "> 100", "unit": "µM"}, {"measurement": "TGI", "setting": "BT-549 breast", "value": 55.3, "unit": "µM"}, {"measurement": "TGI", "setting": "786-0 renal", "value": 64.8, "unit": "µM"}, {"measurement": "TGI", "setting": "SR leukemia", "value": 71.8, "unit": "µM"}]}
{"smiles": "NNc1nc2ccccc2s1", "values": [{"measurement": "TGI", "setting": "M14 melanoma", "value": "> 100", "unit": "µM"}, {"measurement": "TGI", "setting": "SF-539 CNS", "value": "> 100", "unit": "µM"}, {"measurement": "TGI", "setting": "MDA-MB-435", "value": "> 100", "unit": "µM"}, {"measurement": "TGI", "setting": "NCI/ADR-RES ovarian", "value": "> 100", "unit": "µM"}, {"measurement": "TGI", "setting": "BT-549 breast", "value": "> 100", "unit": "µM"}, {"measurement": "TGI", "setting": "786-0 renal", "value": "> 100", "unit": "µM"}, {"measurement": "TGI", "setting": "SR leukemia", "value": "> 100", "unit": "µM"}]}
{"smiles": "Nc1ccc2c3c(n(CCCCl)c(=O)c2c1)-c1cc2c(cc1C3=O)OCO2", "values": [{"measurement": "GI50", "setting": "MDA-MB-435", "value": "> 100", "unit": "µM"}, {"measurement": "TGI", "setting": "MDA-MB-435", "value": "> 100", "unit": "µM"}, {"measurement": "GI50", "setting": "NCI/ADR-RES ovarian", "value": "> 100", "unit": "µM"}, {"measurement": "TGI", "setting": "NCI/ADR-RES ovarian", "value": "> 100", "unit": "µM"}, {"measurement": "GI50", "setting": "SR leukemia", "value": 0.0268, "unit": "µM"}, {"measurement": "TGI", "setting": "SR leukemia", "value": "> 100", "unit": "µM"}]}
{"smiles": "CCC(=O)NC(Nc1ccc(O)cc1)(C(F)(F)F)C(F)(F)F", "values": [{"measurement": "TGI", "setting": "M14 melanoma", "value": "> 100", "unit": "µM"}, {"measurement": "TGI", "setting": "SF-539 CNS", "value": "> 100", "unit": "µM"}, {"measurement": "TGI", "setting": "MDA-MB-435", "value": 65.7, "unit": "µM"}, {"measurement": "TGI", "setting": "BT-549 breast", "value": "> 100", "unit": "µM"}, {"measurement": "TGI", "setting": "SR leukemia", "value": "> 100", "unit": "µM"}]}
{"smiles": "CC12CCC(C(=O)N3CC=CCC3)(OC1=O)C2(C)C", "note": "(stereo not given)", "values": [{"measurement": "TGI", "setting": "SF-539 CNS", "value": "> 100", "unit": "µM"}, {"measurement": "TGI", "setting": "DMS 114 small cell lung", "value": "> 100", "unit": "µM"}, {"measurement": "TGI", "setting": "M19-MEL melanoma", "value": "> 100", "unit": "µM"}, {"measurement": "TGI", "setting": "NCI/ADR-RES ovarian", "value": "> 100", "unit": "µM"}, {"measurement": "TGI", "setting": "P388/ADR leukemia", "value": "> 100", "unit": "µM"}, {"measurement": "TGI", "setting": "SNB-78 CNS", "value": "> 100", "unit": "µM"}, {"measurement": "TGI", "setting": "DMS 273 small cell lung", "value": "> 100", "unit": "µM"}, {"measurement": "TGI", "setting": "DLD-1 colon", "value": "> 100", "unit": "µM"}, {"measurement": "TGI", "setting": "KM20L2 colon", "value": "> 100", "unit": "µM"}, {"measurement": "TGI", "setting": "P388 leukemia", "value": "> 100", "unit": "µM"}]}
{"smiles": "c1cn2cc(-c3ccc4ncn(C5CCCCC5)c4c3)nc(-c3ccc4c(c3)ncn4C3CCCCC3)c2n1", "values": [{"measurement": "GI50", "setting": "SF-539 CNS", "value": 1.63, "unit": "µM"}, {"measurement": "TGI", "setting": "SF-539 CNS", "value": 3.15, "unit": "µM"}, {"measurement": "GI50", "setting": "MDA-MB-435", "value": 1.77, "unit": "µM"}, {"measurement": "TGI", "setting": "MDA-MB-435", "value": 3.54, "unit": "µM"}, {"measurement": "GI50", "setting": "NCI/ADR-RES ovarian", "value": 2.34, "unit": "µM"}, {"measurement": "TGI", "setting": "NCI/ADR-RES ovarian", "value": 7.33, "unit": "µM"}, {"measurement": "GI50", "setting": "BT-549 breast", "value": 1.94, "unit": "µM"}, {"measurement": "TGI", "setting": "BT-549 breast", "value": 3.64, "unit": "µM"}, {"measurement": "GI50", "setting": "SR leukemia", "value": 2.87, "unit": "µM"}, {"measurement": "TGI", "setting": "SR leukemia", "value": "> 100", "unit": "µM"}]}
{"smiles": "O=C(O)C1Cc2c([nH]c3ccccc23)C=N1", "note": "(stereo not given)", "values": [{"measurement": "TGI", "setting": "SF-539 CNS", "value": "> 100", "unit": "µM"}, {"measurement": "TGI", "setting": "DMS 114 small cell lung", "value": "> 100", "unit": "µM"}, {"measurement": "TGI", "setting": "M19-MEL melanoma", "value": "> 100", "unit": "µM"}, {"measurement": "TGI", "setting": "NCI/ADR-RES ovarian", "value": "> 100", "unit": "µM"}, {"measurement": "TGI", "setting": "P388/ADR leukemia", "value": "> 100", "unit": "µM"}, {"measurement": "TGI", "setting": "SNB-78 CNS", "value": "> 100", "unit": "µM"}, {"measurement": "TGI", "setting": "DMS 273 small cell lung", "value": "> 100", "unit": "µM"}, {"measurement": "TGI", "setting": "DLD-1 colon", "value": "> 100", "unit": "µM"}, {"measurement": "TGI", "setting": "KM20L2 colon", "value": "> 100", "unit": "µM"}, {"measurement": "TGI", "setting": "P388 leukemia", "value": "> 100", "unit": "µM"}]}
